One may read the IC50 as the concentration needed to halve the response being measured. Read a low IC50 as inhibition by little substance.

The target of this assay is SOS1:KRAS (G12C) interaction (Homo sapiens (Human), UniProt Q07889). The assay can be described thus: SOS1 KRas(G12C) FRET Assay. The assay is classed as binding. The settings on record: 0.5 nM His10-SOS1 (res. 564-1049), 2.5 nM GST-KRAS G12C (res. 1-169), 2 hrs at RT. In a few lines: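 GST-KRAS G12C (res. 1-169) at 2.5 nM and His10-SOS1 (res. 564-1049) at 0.5 nM, final, in PBS with 0.1% BSA, 5 mM MgCl2, 100 mM KF, 5 mM DTT and 0.5% DMSO. After 2 h at RT, FRET read at 665/615 nm and normalized to DMSO and no-SOS1 controls. IC50 by non-linear regression.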
Sequence of SOS1:KRAS (G12C) interaction (Q07889 564-1049, stated change not applied): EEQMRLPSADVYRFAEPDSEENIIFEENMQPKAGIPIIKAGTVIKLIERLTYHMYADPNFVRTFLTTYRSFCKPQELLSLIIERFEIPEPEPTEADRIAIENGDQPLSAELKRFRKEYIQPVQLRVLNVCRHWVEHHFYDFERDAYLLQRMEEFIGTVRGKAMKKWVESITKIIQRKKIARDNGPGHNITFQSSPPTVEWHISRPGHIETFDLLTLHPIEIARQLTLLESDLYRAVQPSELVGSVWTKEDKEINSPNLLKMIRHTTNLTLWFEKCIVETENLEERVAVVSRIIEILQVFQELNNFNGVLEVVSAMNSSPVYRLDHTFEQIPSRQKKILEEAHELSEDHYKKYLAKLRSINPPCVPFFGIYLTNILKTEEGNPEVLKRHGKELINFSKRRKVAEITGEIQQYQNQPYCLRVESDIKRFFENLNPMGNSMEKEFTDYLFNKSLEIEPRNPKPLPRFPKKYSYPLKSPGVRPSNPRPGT
`[2H]C([2H])([2H])N1CCC(Nc2cc(=O)n(C3(C(F)F)CC3)cc2C(=O)N[C@H](C)c2cccc(C(F)F)c2F)CC1` [Example 286, (R)-N-(1-(3-(difluoromethyl)-2-fluorophenyl)ethyl)-1-(1-(difluoromethyl)cyclopropyl)-4-((1-(methyl-d3)piperidin-4-yl)amino)-6-oxo-1,6-dihydropyridine-3-carboxamide] had an IC50 of 0.0155 µM.

Molecule `Cc1c([C@@H](C)NC(=O)c2cn(C3CCOCC3)c(=O)cc2NC2[C@@H]3C[C@H]2CN(C)C3)cccc1C(F)(F)F` (single isomer, unassigned) [Example 22] gave an IC50 of 0.0259 µM.

`C[C@@H](NC(=O)c1cn(C2(C(F)F)CC2)c(=O)cc1N[C@@H]1C[C@@H]2C[C@H]1CN2C)c1cccc(C(F)F)c1F` (single isomer, unassigned) [Example 238] gave an IC50 of 0.0293 µM.

With `CC(=O)N1CC[C@@](C)(n2cc(C(=O)N[C@H](C)c3cccc(C(F)F)c3F)c(NC3CCN(C)CC3)cc2=O)C1` (single isomer, unassigned) [Example 266], it took 0.0014 µM to reach half-maximal inhibition (IC50).

With `C[C@@H](NC(=O)c1cn(C2(C(F)F)CC2)c(=O)cc1N[C@H]1CCCn2cncc21)c1cccc(C(F)F)c1F` (single isomer, unassigned) [Example 183], it took 0.0061 µM to reach half-maximal inhibition (IC50).

In turn, `C[C@@H](NC(=O)c1cn([C@@H]2CCC2(F)F)c(=O)cc1N[C@H]1[C@@H]2CN(C)C[C@@H]21)c1cccc(C(F)(F)F)c1` (single isomer, unassigned) [Example 256] returned an IC50 of 0.0139 µM.

`C[C@@H](NC(=O)c1cn(C2(C(F)F)CC2)c(=O)cc1N[C@H]1C[C@H]2C[C@@H]1CN2C)c1cccc(C(F)F)c1F` (single isomer, unassigned) [Example 236] returned an IC50 of 0.0453 µM.

Consider `C[C@@H](NC(=O)c1cn(C2(C(F)F)CC2)c(=O)cc1N[C@@H]1[C@@H]2CN(C)C[C@@H]21)c1cccc(C(F)F)c1F` [Example 56, N-((R)-1-(3-(difluoromethyl)-2-fluorophenyl)ethyl)-1-(1-(difluoromethyl)cyclopropyl)-4-(((1R,5S,6r)-3-methyl-3-azabicyclo[3.1.0]hexan-6-yl)amino)-6-oxo-1,6-dihydropyridine-3-carboxamide], for which the IC50 turned out to be 0.0342 µM.

`Cc1c([C@@H](C)NC(=O)c2cn(C3CCOCC3)c(=O)cc2NC2CCN(C)CC2(F)F)cccc1C(F)(F)F` (stereo partly drawn) [Example 283, 4-((3,3-difluoro-1-methylpiperidin-4-yl)amino)-N-((R)-1-(2-methyl-3-(trifluoromethyl)phenyl)ethyl)-6-oxo-1-(tetrahydro-2H-pyran-4-yl)-1,6-dihydropyridine-3-carboxamide] registered an IC50 of 0.137 µM.

`COc1c(NC2CCN(C)CC2)c(C(=O)N[C@H](C)c2cccc(C(F)(F)F)c2C)cn(C2CCOCC2)c1=O` [Example 18, (R)-5-methoxy-N-(1-(2-methyl-3-(trifluoromethyl)phenyl)ethyl)-4-((1-methylpiperidin-4-yl)amino)-6-oxo-1-(tetrahydro-2H-pyran-4-yl)-1,6-dihydropyridine-3-carboxamide] yielded an IC50 of 0.0778 µM.

As to `C[C@@H](NC(=O)c1cn(C2(C(F)F)CCC2)c(=O)cc1N[C@@H]1[C@@H]2C[C@H]1CN(C)C2)c1cccc(C(F)F)c1F` (single isomer, unassigned) [Example 252], the IC50 came to 0.017 µM.

`C[C@@H](NC(=O)c1cn(C2(C(F)F)CC2)c(=O)cc1N[C@H]1[C@@H]2CC[C@H]1CNC2)c1cccc(C(F)F)c1F` (single isomer, unassigned) [Example 280]: half-maximal inhibition (IC50) required 0.0158 µM.

For `Cc1c([C@@H](C)NC(=O)c2cn(C3CCOCC3)c(=O)cc2N[C@@H]2CC[C@@]23CCCN(C)C3)cccc1C(F)(F)F` (single isomer, unassigned) [Example 299], inhibition was half-maximal at 0.0513 µM (IC50).

Regarding `C[C@@H](NC(=O)c1cn(C2(C)CC(F)(F)C2)c(=O)cc1N[C@H]1[C@@H]2CN(C)C[C@@H]21)c1cccc(C(F)F)c1F` [Example 224, 1-(3,3-difluoro-1-methylcyclobutyl)-N-((R)-1-(3-(difluoromethyl)-2-fluorophenyl)ethyl)-4-(((1R,5S,6s)-3-methyl-3-azabicyclo[3.1.0]hexan-6-yl)amino)-6-oxo-1,6-dihydropyridine-3-carboxamide], the midpoint of inhibition, the IC50, lay at 0.0468 µM.

`Cc1c([C@@H](C)NC(=O)c2cn(C3CCOCC3)c(=O)cc2N[C@@H]2[C@@H]3CC[C@H]2CN(C)C3)cccc1C(F)(F)F` (single isomer, unassigned) [Example 31] displayed an IC50 of 0.0276 µM.

Molecule `C[C@@H](NC(=O)c1cn([C@@H]2CCOC(C)(C)C2)c(=O)cc1N[C@H]1[C@@H]2CN(C)C[C@@H]21)c1cccc(C(F)F)c1F` [Example 309, N-((R)-1-(3-(difluoromethyl)-2-fluorophenyl)ethyl)-1-((R)-2,2-dimethyltetrahydro-2H-pyran-4-yl)-4-(((1R,5S,6s)-3-methyl-3-azabicyclo[3.1.0]hexan-6-yl)amino)-6-oxo-1,6-dihydropyridine-3-carboxamide] showed an IC50 of 0.0117 µM.

On to `C[C@@H](NC(=O)c1cn(C23CC(C2)C3)c(=O)cc1N[C@H]1[C@@H]2CNC[C@@H]21)c1cccc(C(F)F)c1F` [Example 89, 4-(((1R,5S,6s)-3-azabicyclo[3.1.0]hexan-6-yl)amino)-1-(bicyclo[1. 1.1]pentan-1-yl)-N-((R)-1-(3-(difluoromethyl)-2-fluorophenyl)ethyl)-6-oxo-1,6-dihydropyridine-3-carboxamide], for which the IC50 turned out to be 0.0229 µM.

With `C[C@@H](NC(=O)c1cn(C23CC(C2)C3)c(=O)cc1NC12CC(N)(C1)C2)c1cccc(C(F)F)c1F` [Example 189, (R)-4-((3-aminobicyclo[1.1.1]pentan-1-yl)amino)-1-(bicyclo[1.1.1]pentan-1-yl)-N-(1-(3-(difluoromethyl)-2-fluorophenyl)ethyl)-6-oxo-1,6-dihydropyridine-3-carboxamide], the IC50 was determined as 0.0163 µM.

Molecule `C[C@@H](NC(=O)c1cn([C@@H]2CC23CC3)c(=O)cc1N[C@H]1[C@@H]2CN(C)C[C@@H]21)c1cccc(C(C)(F)F)c1F` (single isomer, unassigned) [Example 254] came in with an IC50 of 0.013 µM.

Molecule `Cc1c([C@@H](C)NC(=O)c2cn(C3CCOCC3)c(=O)cc2N[C@@H]2CC[C@]23CCCN(C)C3)cccc1C(F)(F)F` (single isomer, unassigned) [Example 297] gave an IC50 of 0.0334 µM.

`C[C@@H](NC(=O)c1cn(C2(C3CCC3)CC2)c(=O)cc1NC1CCN(C)CC1)c1cccc(C(F)F)c1F` [Example 241, (R)-1-(1-cyclobutylcyclopropyl)-N-(1-(3-(difluoromethyl)-2-fluorophenyl)ethyl)-4-((1-methylpiperidin-4-yl)amino)-6-oxo-1,6-dihydropyridine-3-carboxamide] came in with an IC50 of 0.029 µM.

As to `C[C@@H](NC(=O)c1cn([C@H]2CCOC(C)(C)C2)c(=O)cc1NC1CCN(C)CC1)c1cccc(C(F)F)c1F` (single isomer, unassigned) [Example 308], the IC50 amounted to 0.0179 µM.

Take `C[C@@H](NC(=O)c1cn(C2CC3(C2)CC(F)(F)C3)c(=O)cc1N[C@H]1[C@@H]2CN(C)C[C@@H]21)c1cccc(C(F)F)c1F` [Example 231, N-((R)-1-(3-(difluoromethyl)-2-fluorophenyl)ethyl)-1-(6,6-difluorospiro[3.3]heptan-2-yl)-4-(((1R,5S,6s)-3-methyl-3-azabicyclo[3.1.0]hexan-6-yl)amino)-6-oxo-1,6-dihydropyridine-3-carboxamide]: the IC50 came to 0.0102 µM.

`C[C@@H](NC(=O)c1cn(C2(C(F)F)CC2)c(=O)cc1NC[C@@H]1[C@H]2CN(C)C[C@@H]12)c1cccc(C(F)F)c1F` [Example 226, N-((R)-1-(3-(difluoromethyl)-2-fluorophenyl)ethyl)-1-(1-(difluoromethyl)cyclopropyl)-4-((((1R,5S,6s)-3-methyl-3-azabicyclo[3.1.0]hexan-6-yl)methyl)amino)-6-oxo-1,6-dihydropyridine-3-carboxamide] yielded an IC50 of 0.0353 µM.

In the case of `C[C@@H](NC(=O)c1cn([C@]23COC[C@H]2C3)c(=O)cc1N[C@H]1[C@@H]2CN(C)C[C@@H]21)c1cccc(C(F)(F)F)c1F` [Example 290, 1-((1S,5S)-3-oxabicyclo[3.1.0]hexan-1-yl)-N-((R)-1-(2-fluoro-3-(trifluoromethyl)phenyl)ethyl)-4-(((1R,5S,6s)-3-methyl-3-azabicyclo[3.1.0]hexan-6-yl)amino)-6-oxo-1,6-dihydropyridine-3-carboxamide], the IC50 was determined as 0.0092 µM.

The molecule `CC(=O)N1CCC(C)(n2cc(C(=O)N[C@H](C)c3cccc(C(F)F)c3F)c(NC3CCN(C)CC3)cc2=O)C1` (stereo partly drawn) [Example 264, 1-(1-acetyl-3-methylpyrrolidin-3-yl)-N-((R)-1-(3-(difluoromethyl)-2-fluorophenyl)ethyl)-4-((1-methylpiperidin-4-yl)amino)-6-oxo-1,6-dihydropyridine-3-carboxamide] yielded an IC50 of 0.0022 µM.

`C[C@@H](NC(=O)c1cn([C@]23COC[C@H]2C3)c(=O)cc1N[C@H]1[C@@H]2CN(C)C[C@@H]21)c1cccc(C(F)F)c1F` [Example 287, 1-((1S,5S)-3-oxabicyclo[3.1.0]hexan-1-yl)-N-((R)-1-(3-(difluoromethyl)-2-fluorophenyl)ethyl)-4-(((1R,5S,6s)-3-methyl-3-azabicyclo[3.1.0]hexan-6-yl)amino)-6-oxo-1,6-dihydropyridine-3-carboxamide] had an IC50 of 0.0099 µM.

`Cc1c([C@@H](C)NC(=O)c2cn(C3CCOCC3)c(=O)cc2N[C@H]2CCCN(C)CC2)cccc1C(F)(F)F` (single isomer, unassigned) [Example 33]: the IC50 came to 0.018 µM.
